Article PMC7821181, “MS Binding Assays for Glycine Transporter 2 (GlyT2) Employing Org25543 as Reporter Ligand” (Chemmedchem, 2020)
Entries after “also recorded” stand apart in the source; their conditions may differ. Like-named read-outs stand apart in the source and are kept apart here.

Key:
[1] = ref 61; cited from earlier work
hGlyT2 = biological target: T1, hGlyT2 (Homo sapiens, UniProt Q9Y345); experiment: GlyT2 MS Binding Assays: competition experiments with Org25543 as reporter ligand
T1 construct: host or cells: HEK293 cells stably expressing hGlyT2; crude membrane fractions
T1 sequence (Q9Y345 1-797): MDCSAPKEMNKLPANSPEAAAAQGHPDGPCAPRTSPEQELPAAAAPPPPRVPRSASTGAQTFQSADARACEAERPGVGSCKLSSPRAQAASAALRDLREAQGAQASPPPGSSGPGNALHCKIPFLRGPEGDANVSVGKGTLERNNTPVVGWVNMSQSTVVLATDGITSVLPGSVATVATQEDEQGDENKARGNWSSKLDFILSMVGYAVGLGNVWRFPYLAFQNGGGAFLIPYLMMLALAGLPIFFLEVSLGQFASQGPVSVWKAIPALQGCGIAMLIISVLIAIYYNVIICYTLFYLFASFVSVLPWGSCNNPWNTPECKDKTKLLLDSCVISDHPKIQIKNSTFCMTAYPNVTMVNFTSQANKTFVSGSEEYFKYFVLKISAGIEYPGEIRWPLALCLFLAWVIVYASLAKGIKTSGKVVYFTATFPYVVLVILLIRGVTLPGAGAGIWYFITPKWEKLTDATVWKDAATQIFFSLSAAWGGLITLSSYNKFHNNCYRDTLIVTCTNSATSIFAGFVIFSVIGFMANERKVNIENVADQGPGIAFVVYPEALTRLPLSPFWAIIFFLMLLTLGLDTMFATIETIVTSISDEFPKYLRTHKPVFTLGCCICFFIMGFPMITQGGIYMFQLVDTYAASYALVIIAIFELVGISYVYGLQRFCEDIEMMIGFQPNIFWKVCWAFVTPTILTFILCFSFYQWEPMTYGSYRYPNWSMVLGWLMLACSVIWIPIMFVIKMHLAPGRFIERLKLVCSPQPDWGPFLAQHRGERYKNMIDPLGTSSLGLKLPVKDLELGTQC
Method: For the development of the desired competitive MS Binding Assay, the general concept of this kind of binding experiments was followed, in which the affinity of a test compound is delineated from its potency to compete out a reporter ligand, in our case Org25543, from its target binding site. Accordingly, the target protein was incubated with a defined concentration of the reporter ligand and increasing concentration of the individual test compound. In detail, the competitors were studied at seven different concentration levels, which covered about three concentration log units, whereas the concentration of Org25543 was fixed to 10 nM. Thereafter, via the developed LC‐ESI‐MS/MS method the amount of bound marker (total binding) was determined for the samples obtained from the individual incubation mixtures by the common workup for MS Binding Assays. Nonspecific binding was again determined in a set of analogous experiments in which GlyT2 membrane fractions were replaced by material subjected to a heat‐shock before. The resulting amount of Org25543 binding was defined as 0 % level of specific reporter ligand binding. […] The thus determined IC50 values were finally used to calculate the corresponding K i values by means of the Cheng‐Prusoff equation.
For preparation of GlyT2 membrane preparations HEK293 cells, stably expressing the hGlyT2 with a confluence ≥90 %, were used (kindly provided by AbbVie (Wiesbaden, Germany)). As cell culture medium DMEM containing 10 % fetal bovine serum (m/v), 100 U mL^−1 penicillin, 100 μg mL^−1 streptomycin and […] hygromycin B was used and the cells were cultivated in dishes (143 cm^2) at 37 °C and 8 % CO2. The cells were detached from the dish by aspirating the medium, adding 12 mL cell culture medium without hygromycin B and pipetting the medium several times until the cell lawn was completely detached. Subsequently, the cells were washed twice with PBS (5 min, 1600 rpm, Biofuge Stratos, rotor: #3047, Heraeus, Hanau, Germany) and afterwards homogenized in incubation buffer (10 mM HEPES, 120 mM NaCl, 2 mM KCl, 1 mM MgCl2, 1 mM CaCl2, pH 7.5) using a Polytron PTA 10 S (Kinematica Polytron, Littau‐Luzern, Switzerland). After homogenization aliquots of about 1 mg protein were frozen and stored at −80 °C. To determine the amount of protein in the membrane preparation (after treatment with 100 mM NaOH for 1 h) the protein determination according to Bradford ^[63] was applied, using bovine serum albumin as standard for calibration. At the day of the assay the membrane preparation was rapidly thawed, diluted in 20 mL incubation buffer and centrifuged at 4 °C for 20 min at 20 500 rpm (Sorvall Evolution RC, rotor: SS34, Thermo. Electron, Hanau, Germany). Finally, the resulting pellet was resuspended in 6 mL incubation buffer yielding a protein concentration of ∼0.1–0.2 mg mL^−1.
In polypropylene 96‐well plates (1.2 mL well volume, Sarstedt) membrane preparations (∼5–10 μg protein) were incubated in the presence of the reporter ligand and, if required, test compounds in incubation buffer (10 mM HEPES, 120 mM NaCl, 2 mM KCl, 1 mM MgCl2, 1 mM CaCl2, pH 7.5) in a total volume of 250 μL at 37 °C in a Julabo SW‐20 C water bath (Julabo GmbH, Seelbach, Germany) for 1 h (every sample was prepared in triplicates). After the incubation 210 μL aliquots of the binding samples were transferred by means of a 12‐channel pipette onto 96‐well glass fiber filter plates (AcroPrep Advance, glass fiber, 1.0 μm, 350 μL; Pall Corporation, Port Washington, NY, USA) where the incubation was terminated by vacuum filtration (the samples were transferred and the incubation was terminated row after row; Multi Well Plate Vacuum Manifold, Pall, Dreieich, Germany).

GlyT2 [2] = conditions: cited from earlier work; for IC50: read-out: Biological activity, IC50 (literature)
GlyT2 [3] = biological target: T2, GlyT2 (Homo sapiens, UniProt Q9Y345); experiment: influence of DMA on binding of Org25543 towards GlyT2 in competition experiments; conditions: DMA as competitor, up to a concentration of 2 % (215 mM)
T2 construct: host or cells: HEK293 cells stably expressing hGlyT2; crude membrane fractions
T2 sequence (Q9Y345 1-797): T1 sequence (Q9Y345 1-797)
Method: Investigating adsorption of Org25543 to polypropylene container material To investigate the adsorption ability of Org25543 to polypropylene container material dilution series of Org25543 were prepared in reaction tubes (1.5 mL, PP, Sarstedt, Nümbrecht, Germany) using different solvents or solvent mixtures, respectively (H2O, acetonitrile, H2O/DMSO (80:20, v/v), H2O/N,N-dimethylacetamide (DMA; 80:20, 90:10 and 95:5 v/v)). At least five concentration levels (10-fold concentration; 10 nM – 625 pM) were prepared in each solvent and these concentration levels were diluted again 1:10 (final concentrations of Org25543: 1 nM – 62.5 pM) in a mixture of ammonium bicarbonate buffer (5 mM, pH7.8) and acetonitrile containing 111 pM [2H7]Org25543 (final concentration: 100 pM) that the final sample solvent equals the mobile phase.
Then the samples were subjected to LC-ESI-MS/MS quantification and the obtained peak area ratios of Org25543 and [ 2H7]Org25543 were plotted against the concentration of Org25543. By using linear regression analysis calibration curves were obtained for all dilution series and were compared to each other. The calibration curves are depicted in Figure S 4.
Investigating the influence of N,N-dimethylacetamide (DMA) on the binding of Org25543 towards GlyT2 in competition experiments […]

[4] = design: method as in PMID 23962079; conditions: after intravenous injection; cited from earlier work

In the case of `CCCCC/C=C\C/C=C\C/C=C\C/C=C\CCCC(=O)NCC(=O)O` [N‐arachidonylglycine, N‐(1‐oxo‐(5Z,8Z,11Z,14Z)‐eicosatetraenyl)glycine], the “critical micelle concentration (CMC)” value [1] is given as > 100 µM, the Ki (hGlyT2) is given as 3980 nM and the “pIC50 (literature; calcd)” value (GlyT2 [2]; calcd from literature IC50, ref 52) is given as 5.29. The IC50 (GlyT2 [2]; ref 52) was 5100 ± 3100 nM.

In the case of `CC(=O)N(C)C` [DMA, N,N‐dimethylacetamide], the “influence on Org25543 binding at GlyT2, in words” value (GlyT2 [3]) is reported as “no influence on the Org25543 binding at GlyT2; also recorded: not effect Org25543 binding”.

In the case of `N[C@@H](COC(c1cccc(F)c1)c1ccccc1OCc1ccccc1)C(=O)O` (some centres unmarked) [ALX1393, O‐[(2‐benzyloxyphenyl‐3‐flurophenyl)methyl]‐L‐serine], the “fraction crossing the blood‐brain‐barrier” value [4] is given as 5%, the Ki (hGlyT2; read-out: Affinity, pKi (GlyT2 MS Binding Assays) (converted)) is given as 1170 nM and the IC50 (GlyT2 [2]; ref 11, 40) is given as 26 to 100 nM.
